Assay results taken from patent US20240124528A1, “ANTAGONIST OF INTERLEUKIN-17B RECEPTOR (IL-17RB) AND USE THEREOF” (Academia Sinica, priority 2020, published 2024).

Columns and labels:
[1] = test system: peripheral blood mononuclear cells (PBMCs); experiment: IL-17E-induced IL-4 and IL-13 mRNA expression in PBMCs (RT-qPCR); assay type: cell-based; conditions: peptide pretreatment
Method: (FIG. 24A) Flow chart describing the experimental design for testing the effects of anti-IL-17RB antibody and loop peptide on IL-17E-induced expression of IL-4 and IL-13 in peripheral blood mononuclear cells (PBMCs). PBMCs were purified by Ficoll-paque and used for the following experiments. (FIG. 24B to FIG. 24E) IL-4 and IL-13 expression induced by IL-17B or IL-17E in the PBMCs was determined by RT-qPCR after mIgG or anti-IL-17RB antibody pretreatment (FIG. 24B and FIG. 24C) and control or loop peptide pretreatment (FIG. 24D and FIG. 24E), respectively. (FIG. 24F and FIG. 24G) The DCs derived from mouse bone marrow were treated with the control or loop peptides, separately. (FIG. 24F) Flow cytometry analysis using anti-CD80, CD86 and MHC-II antibodies was performed to determine the activity of the DCs after incubation with the control or loop peptides for 48 hrs. (FIG. 24G) The activities of DCs were quantified by gating the area of the CD80, CD86 and MHC-II-positive cells (n=3). Data are mean±s.d.

[2] = test system: transgenic pancreatic cancer EKP mice; experiment: Spontaneous pancreatic cancer model, EKP mice plus cerulein; assay type: in vivo, mouse; conditions: for recruitment of MDSC and M2 macrophage: pancreatic tissues, flow cytometry
From the text: FIGS. 7A to 7J include charts showing that disruption of the interaction between IL-17RB and MLK4 by the loop peptide blocks oncogenic progression. (FIG. 7A) Peptides TAT48-57 (Control) (SEQ ID NO: 21) and TAT-IL-17RB403-416 (Loop) (SEQ ID NO: 30) used for the following experiments. (FIG. 7B) Immunoblotting analysis of IL-17RB binding to MLK4 with Loop peptide treatment. 293T cells expressing Flag-MLK4 and HA-IL-17RB were pretreated with the control and loop peptides with different dose (0, 0.1, 1, 10, 50, 100 ng/ml) for 30 mins, and then added rIL-17B for 30 mins. The cell lysates were reciprocally co-immunoprecipitated with anti-Flag and anti-HA and blotted with the indicated antibodies or directly immunoblotted with the indicated antibodies as the input controls. (FIG. 7C to FIG. 7F) CFPAC1cells were pretreated with the peptides for 30 mins and then added rIL-17B for 30 mins. The cell lysates were immunoblotted with the indicated antibodies or immunoprecipitated with anti-IL-17RB or control IgG and blotted with the indicated antibodies (FIG. 7C). CFPAC1 cells were pretreated with TAT48-57 or TAT-IL-17RB403-416 (50 ng/ml) 30 mins and then added rIL-17B for two hrs. CCL20 and TFF/mRNA expression of these cells were measured by RT-qPCR (n=3) (FIG. 7D), the same cells were for invasion assay (n=4) (FIG. 7E) and SACF assay (n=4) (FIG. 7F). (FIG. 7G) The scheme of the treatment of transgenic pancreatic cancer EKP mice (LSL-Kras^+/G12D; p53^+/−; Ela-Cre^ERT; plus cerulein) with the Loop peptides. (FIG. 7H) IHC images of pancreases stained with anti-P-Y447 antibody. Scale bars: 50 μm. The pancreas tissues were from EKP mice after treated with the control or loop peptides at Day 42. The Kras^+/+ mice (Kras^+/+; p53^+/−; Ela-Cre^ERT; plus cerulein) were used as the non-cancerous control. Boxes indicate the enlarged areas. (FIG. 7I) The experimental EKP mice (n=7 for each group) were euthanized at Day 56, and the metastatic tumor nodules in the lungs were counted. (FIG. 7J) Kaplan-Meier survival curve plot of the lifespans of the experimental EKP mice (n=7 for each group). Log-rank test was used.
FIGS. 20A to 20D include charts showing that treatment of TAT-IL-17RB403-416 peptide reduces the recruitment of MDSC and M2 macrophage. (FIG. 20A) Pancreatic tissues of EKP mice (LSL-Kras+/G12D; p53+/−; Ela-Cre^ERT; plus cerulein) (n=7 for each group) treated with TAT-IL-17RB403-416 (Loop) peptides were examined the tumor-immune modulating capacity by flow cytometry with specific cell surface markers as indicated. […] Data are mean±s.d. *P<0.05, **P<0.01 by two-tailed Student's t-test.
Formalin-fixed paraffin-embedded primary tumor tissue sections were used for IHC. Heat-induced antigen retrieval was performed using 0.1M citrate buffer, pH 6.0 and autoclaved for 20 mins. Endogenous peroxidase was eliminated with 3% H2O2. Slides were stained with an in-house-generated anti-IL-17RB antibody (A81, 1:2000) and anti-P-Y447 (1:500), respectively in PBS/10% FBS overnight at 4° C. After washing, slides were incubated with anti-rabbit/mouse HRP polymer before visualization with liquid diaminobenzidine tetrahydrochloride plus substrate DAB chromogen from Dako REAL EnVision (Carpinteria, CA). All slides were counterstained with hematoxylin.
Tumors were excised, weighed and measured. Approximately half of each dissected tumor was fixed in formalin for histopathologic analysis. The remaining tumor sections were placed in PBS with 1% (v/v) FBS and mechanically minced. […]

[3] = test system: PDX-derived tumor cells (PC080, PC084); experiment: Aggressive behavior of PDX-derived pancreatic tumor cells (RT-qPCR, invasion, SACF); assay type: cell-based, human; conditions: peptides 30 mins, then 50 ng/ml rIL-17B
Method: FIGS. 19A to 19D include charts showing that treatment with the loop peptide suppresses aggressive behavior of patient-derived pancreatic tumor cells. (FIG. 19A) CFPAC1 cells were treated with Alexa Fluor 568-labeled or non-labeled cold peptides of TAT48-57 (Control) and TAT-IL-17R403-416 (Loop) for 30 mins, respectively. Confocal microscopy was used for visualization of peptide penetration into cells. (FIG. 19B) The PDX-derived tumor cells (PC080 left, PC084 right) were pretreated with the peptides for 30 mins and then treated with 50 ng/ml rIL-17B for 2 hrs in serum-free conditions. (FIG. 19C and FIG. 19D) These cells were measured by RT-qPCR for the cytokine gene mRNA expression (n=3), or for Invasion assay (n=4) (FIG. 19C) and SACF assay (n=4) (FIG. 19D). Data in (FIG. 19B—FIG. 19D) are mean±s.d. * P<0.05, **P<0.001 by two-tailed Student's t-test.

RKKRRQRRRVCDGTCGKSEGSPS (IL-17RB inhibitory peptide, fusion protein) [loop peptide]
IL-17E-induced IL-4 and IL-13 mRNA expression [1]: does not suppress | lung metastasis nodule formation ([2]; EKP mice euthanized at day 56): suppressed | expression of P-Y447 IL-17RB in pancreatic tissues (IHC) ([2]; EKP mice, Day 42): diminished | recruitment of MDSC and M2 macrophage ([2]; EKP mice): reduced | recruitment of MDSC and M2 macrophage ([2]; EKP mice, listed as TAT-IL-17RB403-416): reduces | lifespan (Kaplan-Meier survival) ([2]; EKP mice, second treatment protocol): significantly prolonged | aggressive behavior of patient-derived pancreatic tumor cells [3]: suppresses
